From patent US5620997A, “Isothiazolones” (Warner-Lambert Company, priority 1995, dated 1997)
“Also recorded” adds a separate entry of the source.

What was measured:
[1] = molecular target: T1, HIV-1 Nucleocapsid Protein (NCp7) (Human immunodeficiency virus type 1 group M subtype B, UniProt P12493); experiment: Fluorescence-based (TSQ) assay of zinc ejection from purified HIV-1 NCp7; type: biochemical; conditions: 10 μM compound, 2.8 μM NCp7, 47 μM TSQ, pH 7.4, 26° C., 90 minutes
T1 construct: The NCp7 protein containing 2 Zn-fingers and 2 Zn ions
Text: The compounds of the present invention cause the extrusion of zinc from the nucleocapsid protein (NCp7) of HIV-1. The NC protein is highly conserved among all retroviruses (South T., Blake P., et al., Biochemistry, 1990;;29:7786) and is essential for viral infectivity (Aldovini A. and Young R., J. Virology, 1990;64:1920 and Gorelick R., Nigida S., et al., J. Virology, 1990;64:3207). The zinc is normally held in NC proteins by 1 or 2 zinc fingers. In the case of HIV-1, 2 zinc fingers are present (Summers M., South T., et al., Biochemistry, 1990;29:329) and are involved specifically with the PSI site on viral RNA which controls the packaging of viral RNA. Interference of this packaging causes the formation of non-infectious virions (Dannull J., Surovoy A., et al., EMBO, 1994;13:1525). It has previously been shown that compounds that cause zinc extrusion have potent anti-HIV activity in multiple cell lines and against all retroviruses (Rice W., Schaeffer C., et al., Nature, 1993;361:473).
A fluorescence-based assay has been developed to monitor the ejection of zinc from purified HIV-1 NCp7. The fluorophore, N-(6-methoxy-8-quinolyl)-p-toluenesulfonamide (TSQ), has an increased fluorescent signal upon bonding zinc ion in solution. The NCp7 protein containing 2 Zn-fingers and 2 Zn ions is incubated with drug causing the extrusion of Zn ions. The released Zn is then sequestered by the TSQ and the increased fluorescence monitored relative to control. The assay was performed as follows: 10 μM compound was added to 2.8 μM NCp7 and 47 μM TSQ in 20 μL of pH 7.4 buffer at 26° C. for 90 minutes. Fluorescence (excitation 355 nm emission 400 nm) was monitored versus time. Controls were the NCp7 under assay conditions without drug, and apo NCp7 (no Zn) with drug. The % Zn extrusion was calculated based on the actual fluorescence measured divided by the fluorescence of all theoretical Zn extruded (5.6 μM)×100.
Table 1 below presents the results of testing several of the invention compounds in zinc extrusion assay described above. The compounds were evaluated for their ability to cause the extrusion of zinc from nucleocapsid protein NCp7 (expressed as % relative to control).

NCp7 = molecular target: T2, NCp7 (Human immunodeficiency virus type 1 (NEW YORK-5 ISOLATE), UniProt P12493); experiment: Electrospray ionization mass spectral analysis of NCp7 with compound; type: binding, HIV-1; conditions: 40 μM NCp7, ammonium acetate buffer pH 6, 320 μM compound, 3 minutes
T2 construct: same protein as the TSQ zinc-ejection assay
Experimental: Electrospray ionization mass spectral analysis was also performed. Using 40 μM NCp7 in ammonium acetate buffer at pH 6, 320 μM 4-(3-oxo-3h-benzo[d]isothiazol-2-yl)benzenesulfonamide (Example 1) in acetonitrile was added. […] In addition, a peak at 6740 corresponding to the NCp7+308+Zn appeared.

[2] = molecular target: T3, rabbit reticulocyte 15-LO (Oryctolagus cuniculus, UniProt P12530); experiment: Colorimetric Assay of 15-LO Inhibition; type: biochemical; conditions: colorimetric method
T3 construct: rabbit reticulocyte 15-LO; from tissue; host or cells: rabbit reticulocytes
T3 sequence (P12530 1-663): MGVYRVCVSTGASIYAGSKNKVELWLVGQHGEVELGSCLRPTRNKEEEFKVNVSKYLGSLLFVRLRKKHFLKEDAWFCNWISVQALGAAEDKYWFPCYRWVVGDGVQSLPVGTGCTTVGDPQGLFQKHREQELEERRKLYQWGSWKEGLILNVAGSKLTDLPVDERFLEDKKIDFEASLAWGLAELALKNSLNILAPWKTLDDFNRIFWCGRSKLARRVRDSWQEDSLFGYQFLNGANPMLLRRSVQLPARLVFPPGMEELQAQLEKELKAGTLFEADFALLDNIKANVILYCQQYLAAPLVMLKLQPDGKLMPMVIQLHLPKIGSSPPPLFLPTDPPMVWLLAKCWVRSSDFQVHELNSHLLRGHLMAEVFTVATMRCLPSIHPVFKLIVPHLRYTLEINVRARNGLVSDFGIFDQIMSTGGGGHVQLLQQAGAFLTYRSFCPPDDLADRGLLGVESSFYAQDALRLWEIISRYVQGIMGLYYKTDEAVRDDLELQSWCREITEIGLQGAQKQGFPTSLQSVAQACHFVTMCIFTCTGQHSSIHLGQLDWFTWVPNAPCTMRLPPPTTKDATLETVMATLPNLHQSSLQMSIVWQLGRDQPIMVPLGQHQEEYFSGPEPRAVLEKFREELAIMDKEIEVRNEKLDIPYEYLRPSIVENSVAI
Experimental: The isothiazolones of Formula I are also effective for treating inflammation and atherosclerosis. A characteristic feature of atherosclerosis is the accumulation of cholesteryl ester engorged from foam cells. Foam cells are derived from circulating monocytes which invade artery walls in response to hypercholesterolemia, and mature into tissue macrophages. […] Specifically, representative compounds were evaluated by the methods described by Auerbach, et al., Analytical Biochemistry, 1992;201:375-380. Two in vitro assays were utilized, both utilizing rabbit reticulocyte 15-LO, and linoleic acid as substrate, to enzymatically produce a peroxide oxidation product known as 13(S)-HPODE. N-Benzoyl leucomethylene blue was utilized as a colorimetric reagent for detection and quantification of the peroxide formation. Also, HPLC was utilized to quantify the oxidation following incubation at 4° C. for 10 minutes.
Table 3 gives the concentration of compound required to inhibit 50% of the activity of 15-LO (IC50) when measured by the HPLC method of Auerbach, et al. Table 4 gives the percent inhibition of 15-LO activity when evaluated by the colorimetric method.

[3] = CEM cell assay, toxicity (growth inhibition); type: cell-based; conditions: human, cem cells; Toxic concentration which inhibits the growth of cells 50% relative to control; read-out: CEM Cell Assay TC50
Experimental: T4 lymphocytes (CEM cell line) are exposed to HIV at a virus to cell ratio approximately 0.05, and plated along with noninfected control cells in 96-well microliter plates. Candidate agent is dissolved in dimethyl sulfoxide (unless otherwise noted), then diluted 1:200 in cell culture medium. Further dilutions (half-log10) are prepared before adding to an equal volume of medium containing either infected or noninfected cells. Cultures are incubated at 37° in a 5% carbon dioxide atmosphere for 6 or 7 days. The tetrazolium salt, XTT, is added to all wells, and cultures are incubated to allow formazan color development by viable cells J. National Cancer Institute, 1989;81:577-586. Individual wells are analyzed spectrophotometrically to quantitate formazan production, and in addition are viewed microscopically for detection of viable cells confirmation of protective activity. Drug-tested virus-infected cells are compared with drug-treated noninfected cells and with other appropriate controls (untreated infected and untreated noninfected cells, drug-contain wells without cells, etc.) on the same plate. Data are reviewed in comparison with other tests done at the same time and a determination about activity is made.

With `NS(=O)(=O)c1ccc(-n2sc3ccccc3c2=O)cc1` [Example 1, 4-(3-Oxo-3h-benzo[d]isothiazol-2-yl)-benzenesulfonamide] the “% Zn Extrusion Relative to Control” value [1] was 100%, the “Zinc extrusion and covalent adduct formation by electrospray mass spectrometry” value (NCp7) was “a mass peak at 6360 (100%) corresponding to apo NCp7 (loss of 2 Zn) appeared; also recorded: the extrusion of zinc and the formation of a covalent bond between the cysteine of the zinc finger and the isothiazolone” and the inhibition at 10 µM [2] was 35%. For the same molecule, the CC50 [3] was 21 µM.
